Source: publication PMC10616469, “Pharmacokinetics and tissue distribution of four major bioactive components of Cynanchum auriculatum extract: a UPLC–MS/MS study in normal and functional dyspepsia rats” (Frontiers in Pharmacology, 2023)
Where two headings read alike, the source gives them in different places.

Key:
[1] = Stability of the four compounds in tissue homogenate samples (QC samples); settings: mean ± s, n = 5
Description: (§1) Additionally, stomach and small intestinal tissues were diluted three times to obtain a tissue homogenate. Then, 300 μL of this tissue homogenate was mixed with 30 μL 1% formic acid-water, 20 μL IS, and 1.2 mL acetonitrile. The mixture was then vortexed for 5 min, sonicated for 10 min, and then stored at −20°C for 30 min. Subsequently, the mixture was centrifuged at 14,000 rpm for 10 min. The supernatant obtained was then transferred to another tube and evaporated to dryness at 37°C under nitrogen. The dried residue was reconstituted with 200 μL of the 50% methanol–water, and the centrifugation process was repeated. The obtained supernatant was then used for further analysis.
The appropriate amount of the reference substance was accurately weighed and dissolved in an appropriate amount of methanol to obtain stock solutions. The concentrations of the resulting stock solution were 0.9996 mg/mL for baishouwu benzophenone, 0.9518 mg/mL for deacylmetaplexigenin, 1.3660 mg/mL for qingyangshengenin, and 0.9898 mg/mL for syringic acid. Accurate volumes of each stock solution were mixed to obtain working solution, which was then serially diluted with methanol to provide standard working solutions. Similarly, QC samples of three concentrations (low, medium, and high) were prepared. All solutions were stored at −20°C for later use.
The following parameters of stability were assessed: short–term stability (24 h at room temperature), processed sample stability (24 h at 4°C), freeze–thaw stability (3 cycles), and auto–sampler stability (6 h at room temperature). QC samples of different concentrations were used for stability analysis.

[2] = Tissue distribution study after oral administration of CA extract in normal and FD rats
Description: UPLC–MS/MS analysis was conducted using the ACQUITY UPLC system (Waters Corp., Milford, MA, United States) equipped with a Xevo–TQ mass spectrometer (Waters Corp., Milford, MA, United States) with an electrospray ionization (ESI) interface and triple quadrupole mass analyzer.
The ACQUITY UPLC® BEH C18 column (2.1 mm × 50 mm, 1.7 μm, Waters, United States) was used for separation and was maintained at 40°C. The mobile phase consisted of 0.1% formic acid in water (A) and 0.1% formic acid–acetonitrile (B) for PK study and 0.2% formic acid in water (A) and 0.2% formic acid–acetonitrile (B) for tissue distribution study. The mobile phase was eluted as a gradient, as follows: 0–0.5 min, 10% B; 0.5–3.0 min, 15% B; 3.0–3.2 min, 25% B; 3.2–4.0 min, 30% B; 4.0–4.5 min, 32% B; 4.5–6.0 min, 90% B; and 6.0 min, 10% B. The flow rate was set at 0.35 mL/min and the injection volume was 2 μL for the PK study and 1 μL for the tissue distribution study.
The four active components of CA were quantified using multiple reaction monitoring under negative ion mode. The following m/z transitions were chosen for quantification: baishouwu benzophenone 301.00→283.00, deacylmetaplexigenin 379.15→361.20, qingyangshengenin 499.20→137.00, syringic acid 197.20→181.95, and puerarin (internal standard, IS) 415.10→267.05. The collision energy was 15, 15, 35, 15, and 35 V, respectively ([Sun et al., 2022]). ESI mode was operated under the following conditions: capillary voltage, 1 kV; desolvation gas (N2), 1000 L/h; collision gas (Ar2), 150 L/h; desolvation temperature, 400°C; and source temperature, 120°C.
as §1
SD rats were randomly divided into normal and FD groups (n = 30 each) and orally administered 10 mL/kg of CA extract solution. The rats were sacrificed at 10, 30 min, 1, 2, and 4 h after administration (6 rats per time point). Subsequently, their heart, liver, spleen, lung, kidney, brain, small intestine, and stomach were removed. The tissue samples were then washed in saline solution and wiped with filter paper. Subsequently, all tissues were stored at −80°C until analysis.

[3] = PK study: plasma pharmacokinetics after oral administration of CA extract in normal and FD rats (UPLC-MS/MS); format: in vivo; settings: Sprague-Dawley, rat, oral CA extract (0.10 g/mL solution, 10 mL/kg); for AUC(0-inf) / AUC(0-t) / CL/F / Cmax / half-life: n = 6; for Tmax: n = 6, read-out: Tmax; for Vd/F: n = 6, read-out: Vz/F
Description: For PK experiments, an appropriate amount of the CA extract was weighed to prepare a 0.10 g/mL solution using physiological saline. Briefly, 12 SD rats were randomly assigned to normal and FD groups and were orally administered the prepared CA sample (10 mL/kg body weight). For assessment, 0.3 mL of blood was collected into heparinized tubes via the caudal vein before dosing and at 2, 5, 10, 15, 20, 30, and 45 min, and 1, 2, 4, 8, 12, 24, and 48 h after administration. Blood samples were then immediately centrifuged at 4,500 rpm for 15 min, and the obtained plasma samples were stored at −20°C until determination.
The PK parameters were analyzed using the non–compartment analysis using the WinNonLin 8.2 software (Phoenix, United States). All the data were expressed as mean ± standard deviation (SD). The normal and FD groups were compared using independent samples t–test in SPSS 22.0. Results with p values < 0.05 were considered statistically significant.

[4] = Stability of the four compounds in plasma samples (QC samples); settings: n = 5
Description: In a 1.5 mL EP tube, 100 μL of plasma sample was mixed with 10 µL 1% formic acid–water, 10 μL IS (0.2011 μg/mL), and 400 μL acetonitrile. The mixture was then vortexed for 5 min, followed by sonication for 10 min at 40 kHz and centrifugation at 14,000 rpm for 10 min. The supernatant obtained was transferred to another tube and evaporated to dryness under a nitrogen vacuum at 37°C. The residue obtained was reconstituted with 150 μL of the initial mobile phase, and the centrifugation process was repeated. The supernatant thus obtained was then used for further analysis.
Similarly, QC samples of three concentrations (low, medium, and high) were prepared.
The specificity of the method was evaluated by comparing the retention times of analytes and IS in the blank matrix, blank matrix spiked with the four analytes and IS, and the samples after oral administration of CA extract. Calibration curves were constructed by comparing the ratio of peak areas of the four analytes to that of IS versus the concentration of the four analytes. Calibration curves were fitted via linear weighted (1/X ^ 2 ) least–squares regression. The intra–and inter–day precision and accuracy were estimated by analyzing QC samples at different concentrations on the same day and three consecutive validation days, respectively. The extraction recovery was evaluated by determining the peak area of analytes in QC samples compared with that in extracted matrix samples. The relative standard deviation of the extraction recovery of analytes at each level was retained at ≤20.0%. The following parameters of stability were assessed: short–term stability (24 h at room temperature), processed sample stability (24 h at 4°C), freeze–thaw stability (3 cycles), and auto–sampler stability (6 h at room temperature). QC samples of different concentrations were used for stability analysis.

[5] = Brain homogenate, highest QC (ng·mL^-1): Baishouwu benzophenone 131.10, Syringic acid 320.04, Qingyangshengenin 62.12, Deacylmetaplexigenin 677.19
[6] = Brain homogenate, lowest QC (ng·mL^-1): Baishouwu benzophenone 3.34, Syringic acid 8.18, Qingyangshengenin 1.58, Deacylmetaplexigenin 17.26
[7] = Brain homogenate, middle QC (ng·mL^-1): Baishouwu benzophenone 20.88, Syringic acid 51.14, Qingyangshengenin 9.90, Deacylmetaplexigenin 107.87
[8] = Heart homogenate, highest QC (ng·mL^-1): Baishouwu benzophenone 111.56, Syringic acid 340.93, Qingyangshengenin 350.76, Deacylmetaplexigenin 1522.88
[9] = Heart homogenate, lowest QC (ng·mL^-1): Baishouwu benzophenone 2.66, Syringic acid 8.11, Qingyangshengenin 8.35, Deacylmetaplexigenin 36.24
[10] = Heart homogenate, middle QC (ng·mL^-1): Baishouwu benzophenone 18.96, Syringic acid 57.96, Qingyangshengenin 59.63, Deacylmetaplexigenin 258.89
[11] = Kidney homogenate, highest QC (ng·mL^-1): Baishouwu benzophenone 768.40, Syringic acid 1230.44, Qingyangshengenin 844.98, Deacylmetaplexigenin 2249.71
[12] = Kidney homogenate, lowest QC (ng·mL^-1): Baishouwu benzophenone 9.84, Syringic acid 15.75, Qingyangshengenin 10.82, Deacylmetaplexigenin 28.80
[13] = Kidney homogenate, middle QC (ng·mL^-1): Baishouwu benzophenone 81.96, Syringic acid 131.25, Qingyangshengenin 90.13, Deacylmetaplexigenin 239.97
[14] = Liver homogenate, highest QC (ng·mL^-1): Baishouwu benzophenone 313.75, Syringic acid 268.07, Qingyangshengenin 4484.13, Deacylmetaplexigenin 3093.35
[15] = Liver homogenate, lowest QC (ng·mL^-1): Baishouwu benzophenone 1.77, Syringic acid 22.34, Qingyangshengenin 25.26, Deacylmetaplexigenin 16.38
[16] = Lung homogenate, highest QC (ng·mL^-1): Baishouwu benzophenone 630.29, Syringic acid 662.80, Qingyangshengenin 385.86, Deacylmetaplexigenin 1513.71
[17] = Lung homogenate, lowest QC (ng·mL^-1): Baishouwu benzophenone 17.66, Syringic acid 18.57, Qingyangshengenin 10.81, Deacylmetaplexigenin 42.42
[18] = Lung homogenate, middle QC (ng·mL^-1): Baishouwu benzophenone 105.98, Syringic acid 111.44, Qingyangshengenin 64.88, Deacylmetaplexigenin 254.52
[19] = Small intestine homogenate, highest QC (ng·mL^-1): Baishouwu benzophenone 39.22, Syringic acid 773.28, Qingyangshengenin 1726.39, Deacylmetaplexigenin 1206.41
[20] = Small intestine homogenate, lowest QC (ng·mL^-1): Baishouwu benzophenone 0.46, Syringic acid 9.31, Qingyangshengenin 20.77, Deacylmetaplexigenin 14.52
[21] = Small intestine homogenate, middle QC (ng·mL^-1): Baishouwu benzophenone 4.97, Syringic acid 97.95, Qingyangshengenin 218.68, Deacylmetaplexigenin 152.81
[22] = Spleen homogenate, highest QC (ng·mL^-1): Baishouwu benzophenone 658.88, Syringic acid 752.66, Qingyangshengenin 418.52, Deacylmetaplexigenin 1979.74
[23] = Spleen homogenate, lowest QC (ng·mL^-1): Baishouwu benzophenone 10.98, Syringic acid 12.54, Qingyangshengenin 6.98, Deacylmetaplexigenin 33.00
[24] = Spleen homogenate, middle QC (ng·mL^-1): Baishouwu benzophenone 87.85, Syringic acid 100.35, Qingyangshengenin 55.80, Deacylmetaplexigenin 263.97
[25] = Stomach homogenate, highest QC (ng·mL^-1): Baishouwu benzophenone 47.06, Syringic acid 257.76, Qingyangshengenin 1285.45, Deacylmetaplexigenin 1665.65
[26] = Stomach homogenate, lowest QC (ng·mL^-1): Baishouwu benzophenone 0.63, Syringic acid 3.44, Qingyangshengenin 17.14, Deacylmetaplexigenin 22.21
[27] = Stomach homogenate, middle QC (ng·mL^-1): Baishouwu benzophenone 6.28, Syringic acid 34.37, Qingyangshengenin 171.39, Deacylmetaplexigenin 222.09
[28] = high QC (nominal 1666.00 / 3172.53 / 569.17 / 206.21 ng·mL^-1)
[29] = low QC (nominal 52.06 / 49.57 / 8.89 / 1.61 ng·mL^-1)
[30] = medium QC (nominal 208.25 / 396.57 / 71.13 / 25.78 ng·mL^-1)

Auto-sampler for 6 h Measured concentration [1, 5]: 120.63 ± 2.55 ng/mL
Three freeze-thaw cycles Measured concentration [1, 5]: 123.76 ± 3.01 ng/mL
Auto-sampler for 6 h Measured concentration [1, 6]: 3.08 ± 0.01 ng/mL
Three freeze-thaw cycles Measured concentration [1, 6]: 3.02 ± 0.04 ng/mL
Auto-sampler for 6 h Measured concentration [1, 7]: 19.76 ± 0.44 ng/mL
Three freeze-thaw cycles Measured concentration [1, 7]: 20.10 ± 0.34 ng/mL
Auto-sampler for 6 h Measured concentration [1, 8]: 117.44 ± 1.18 ng/mL
Three freeze-thaw cycles Measured concentration [1, 8]: 118.10 ± 1.89 ng/mL
Auto-sampler for 6 h Measured concentration [1, 9]: 2.59 ± 0.05 ng/mL
Three freeze-thaw cycles Measured concentration [1, 9]: 2.47 ± 0.03 ng/mL
Auto-sampler for 6 h Measured concentration [1, 10]: 19.82 ± 0.45 ng/mL
Three freeze-thaw cycles Measured concentration [1, 10]: 19.77 ± 0.41 ng/mL
Auto-sampler for 6 h Measured concentration [1, 11]: 750.99 ± 14.44 ng/mL
Three freeze-thaw cycles Measured concentration [1, 11]: 748.36 ± 12.9 ng/mL
Auto-sampler for 6 h Measured concentration [1, 12]: 9.74 ± 0.44 ng/mL
Three freeze-thaw cycles Measured concentration [1, 12]: 9.58 ± 0.63 ng/mL
Auto-sampler for 6 h Measured concentration [1, 13]: 88.88 ± 5.31 ng/mL
Three freeze-thaw cycles Measured concentration [1, 13]: 87.75 ± 5.24 ng/mL
Auto-sampler for 6 h Measured concentration [1, 14]: 305.22 ± 17.58 ng/mL
Three freeze-thaw cycles Measured concentration [1, 14]: 303.56 ± 16.64 ng/mL
Auto-sampler for 6 h Measured concentration [1, 15]: 1.80 ± 0.19 ng/mL
Three freeze-thaw cycles Measured concentration [1, 15]: 1.86 ± 0.05 ng/mL
Three freeze-thaw cycles Measured concentration ([1]; Liver homogenate, middle QC (ng·mL^-1): Baishouwu benzophenone 27.19, Syringic acid 89.35, Qingyangshengenin 386.62, Deacylmetaplexigenin 268.09): 26.80 ± 1.81 ng/mL
Auto-sampler for 6 h Measured concentration [1, 16]: 717.67 ± 14.53 ng/mL
Three freeze-thaw cycles Measured concentration [1, 16]: 716.31 ± 12.93 ng/mL
Auto-sampler for 6 h Measured concentration [1, 17]: 17.71 ± 1.84 ng/mL
Three freeze-thaw cycles Measured concentration [1, 17]: 17.55 ± 2.16 ng/mL
Auto-sampler for 6 h Measured concentration [1, 18]: 107.37 ± 5.82 ng/mL
Three freeze-thaw cycles Measured concentration [1, 18]: 105.63 ± 6.43 ng/mL
Auto-sampler for 6 h Measured concentration [1, 19]: 38.84 ± 3.48 ng/mL
Three freeze-thaw cycles Measured concentration [1, 19]: 38.30 ± 3.03 ng/mL
Auto-sampler for 6 h Measured concentration [1, 20]: 0.48 ± 0.05 ng/mL
Three freeze-thaw cycles Measured concentration [1, 20]: 0.46 ± 0.04 ng/mL
Auto-sampler for 6 h Measured concentration [1, 21]: 4.71 ± 0.14 ng/mL
Three freeze-thaw cycles Measured concentration [1, 21]: 4.66 ± 0.10 ng/mL
Auto-sampler for 6 h Measured concentration [1, 22]: 684.55 ± 31.57 ng/mL
Three freeze-thaw cycles Measured concentration [1, 22]: 677.57 ± 32.24 ng/mL
Auto-sampler for 6 h Measured concentration [1, 23]: 11.24 ± 0.63 ng/mL
Three freeze-thaw cycles Measured concentration [1, 23]: 11.40 ± 0.76 ng/mL
Auto-sampler for 6 h Measured concentration [1, 24]: 80.95 ± 2.54 ng/mL
Three freeze-thaw cycles Measured concentration [1, 24]: 79.35 ± 1.81 ng/mL
Auto-sampler for 6 h Measured concentration [1, 25]: 43.94 ± 1.72 ng/mL
Three freeze-thaw cycles Measured concentration [1, 25]: 44.41 ± 1.38 ng/mL
Auto-sampler for 6 h Measured concentration [1, 26]: 0.57 ± 0.05 ng/mL
Three freeze-thaw cycles Measured concentration [1, 26]: 0.58 ± 0.07 ng/mL
Auto-sampler for 6 h Measured concentration [1, 27]: 6.13 ± 0.11 ng/mL
Three freeze-thaw cycles Measured concentration [1, 27]: 6.22 ± 0.15 ng/mL
tissue with the highest concentration ([2]; FD group): lungs
crossing of the blood-brain barrier ([2]; distribution found in rat brain): could cross the blood-brain barrier
time after oral administration at which almost completely metabolized in tissues ([2]; rat tissues): 4 h
time of peak in most of organ tissues ([2]; rat tissues): 0.17 to 0.5 h
AUC(0-inf) ([3]; FD group rats): 11100 ng·h/mL
AUC(0-t) ([3]; FD group rats): 9820 ± 1300 ng·h/mL
CL/F ([3]; FD group rats): 7.5 mL/min/kg
Cmax ([3]; FD group rats): 5220 ± 440 ng/mL
half-life ([3]; FD group rats): 11 ± 1.85 h
Tmax ([3]; FD group rats): 0.31 ± 0.06 h
Vd/F ([3]; FD group rats): 7.08 ± 1.07 L/kg
AUC(0-inf) ([3]; Normal group rats): 13800 ng·h/mL
AUC(0-t) ([3]; Normal group rats): 12800 ng·h/mL
CL/F ([3]; Normal group rats): 6 mL/min/kg
Cmax ([3]; Normal group rats): 6000 ± 592 ng/mL
half-life ([3]; Normal group rats): 9.14 ± 2.41 h
Tmax ([3]; Normal group rats): 0.26 ± 0.03 h
Vd/F ([3]; Normal group rats): 4.67 ± 0.88 L/kg
Measured concentration, 4°C for 24 h [4, 28]: 1594.23 ± 107.31 ng/mL
Measured concentration, Room temperature for 24 h [4, 28]: 1664.66 ± 169.47 ng/mL
Measured concentration, Three freeze-thaw cycles [4, 28]: 1684.19 ± 146.38 ng/mL
Measured concentration, 4°C for 24 h [4, 29]: 55.65 ± 4.01 ng/mL
Measured concentration, Three freeze-thaw cycles [4, 29]: 56.07 ± 5.75 ng/mL
Measured concentration, Room temperature for 24 h ([4]; low QC (nominal 52.06 / 49.57 / 8.89 / 1.61 ng·mL^-1 for baishouwu benzophenone / deacylmetaplexigenin / qingyangshengenin / syringic acid)): 55.67 ± 5.93 ng/mL
Measured concentration, 4°C for 24 h [4, 30]: 221.19 ± 11.60 ng/mL
Measured concentration, Room temperature for 24 h [4, 30]: 222.20 ± 17.55 ng/mL
Measured concentration, Three freeze-thaw cycles [4, 30]: 221.08 ± 17.98 ng/mL
SMILES: CC(=O)c1ccc(O)c(C(=O)c2c(O)ccc(O)c2C)c1O [Baishouwu benzophenone]
